Laboratory results: ChEMBL document CHEMBL1158332, “Saniculoside N from Sanicula europaea L” (J Nat Prod, 1997)

System: Human immunodeficiency virus
Test: Inhibition of HIV reverse transcriptase at 200 ug/ml

Row | Structure (SMILES) | inhibition
1 | C/C=C(\C)C(=O)O[C@H]1[C@H](O)[C@@]2(CO)[C@H](CC1(C)C)C1=CC[C@@H]3[C@@]4(C)CC[C@H](O[C@@H]5O[C@H](C(=O)OCCC)[C@@H](O)[C@H](O[C@@H]6O[C@H](CO)[C@@H](O[C@@H]7OC[C@@H](O)[C@H](O)[C@H]7O)[C@H](O)[C@H]6O)[C@H]5O)C(C)(C)[C@@H]4CC[C@@]3(C)[C@]1(C)[C@@H](O)[C@H]2O | 20.1%
2 | O=C(O)/C=C/c1ccc(O)c(O)c1 | 0%
3 | O=C(/C=C/c1ccc(O)c(O)c1)O[C@H](Cc1ccc(O)c(O)c1)C(=O)O | 57.4%
